biological target: T1, Aminopeptidase N (Sus scrofa, UniProt P15145); assay: Inhibition of pig kidney aminopeptidase N
T1 sequence (P15145 whole entry): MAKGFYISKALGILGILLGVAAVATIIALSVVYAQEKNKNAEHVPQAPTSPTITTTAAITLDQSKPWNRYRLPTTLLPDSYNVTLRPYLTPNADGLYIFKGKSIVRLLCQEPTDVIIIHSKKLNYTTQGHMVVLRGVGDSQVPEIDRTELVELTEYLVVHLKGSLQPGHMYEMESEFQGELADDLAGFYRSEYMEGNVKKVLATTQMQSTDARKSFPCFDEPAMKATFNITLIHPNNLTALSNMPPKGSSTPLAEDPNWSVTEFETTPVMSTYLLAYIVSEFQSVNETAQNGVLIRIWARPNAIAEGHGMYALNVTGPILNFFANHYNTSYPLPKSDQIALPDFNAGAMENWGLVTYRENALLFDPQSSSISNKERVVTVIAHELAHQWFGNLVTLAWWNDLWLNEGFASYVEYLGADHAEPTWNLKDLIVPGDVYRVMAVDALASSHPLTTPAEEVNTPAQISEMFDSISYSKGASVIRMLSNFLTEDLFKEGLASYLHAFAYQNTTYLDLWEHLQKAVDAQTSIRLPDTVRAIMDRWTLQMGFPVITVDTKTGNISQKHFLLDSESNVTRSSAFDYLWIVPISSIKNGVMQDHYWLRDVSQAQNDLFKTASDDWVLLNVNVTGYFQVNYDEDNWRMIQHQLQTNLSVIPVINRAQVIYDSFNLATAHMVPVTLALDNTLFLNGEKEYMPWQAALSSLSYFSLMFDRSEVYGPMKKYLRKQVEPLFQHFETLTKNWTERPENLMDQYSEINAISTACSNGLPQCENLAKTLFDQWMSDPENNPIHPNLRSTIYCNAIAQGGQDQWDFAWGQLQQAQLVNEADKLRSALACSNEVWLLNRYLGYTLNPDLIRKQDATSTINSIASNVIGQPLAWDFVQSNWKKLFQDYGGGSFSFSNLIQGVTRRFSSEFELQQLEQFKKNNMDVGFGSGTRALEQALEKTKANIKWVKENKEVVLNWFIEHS

Compared with `CCCC(N)P(=O)(O)C(=S)NCc1ccc(OC)cc1` (configuration not stated), `CCCCC(N)P(=O)(O)C(=S)NCc1ccc(OC)cc1` (configuration not stated) is 2.7-fold lower in IC50: 680 nM for the first, 250 nM for the second. The second is the more potent here.

Compared with `CC(N)P(=O)(O)C(=S)NCCc1ccccc1` (configuration not stated), `CCCC(N)P(=O)(O)C(=S)NCCc1ccccc1` (configuration not stated) is 1.8-fold lower in IC50: 4200 nM for the first, 2280 nM for the second.

Compared with `CCCCCCNC(=S)P(=O)(O)C(N)C(C)C` (configuration not stated), `CCCCCCNC(=S)P(=O)(O)C(N)CC(C)C` (configuration not stated) is 2.4-fold lower in IC50: 1180 nM for the first, 500 nM for the second. The second is the more potent here.

Going from `CNC(=S)P(=O)(O)C(N)CC(C)C` (configuration not stated) to `CC(C)CNC(=S)P(=O)(O)C(N)C(C)C` (configuration not stated), the IC50 falls from 10600 nM to 1900 nM (5.6-fold). The second is the more potent here.

Compared with `COc1ccc(CNC(=S)P(=O)(O)C(N)CCc2ccccc2)cc1` (configuration not stated), `COc1ccc(CNC(=S)P(=O)(O)C(C)N)cc1` (configuration not stated) is 2.9-fold higher in IC50: 380 nM for the first, 1120 nM for the second. The first is the more potent here.

With `CCCCC(N)P(=O)(O)C(=S)NCCc1ccccc1` (configuration not stated) the IC50 was 730 nM.

`CCCCC(N)P(=O)(O)C(=S)NCc1ccc(OC)cc1` (configuration not stated) was tested, and the Ki was 143 nM.

Reference: ChEMBL document CHEMBL1157452, “First synthesis of alpha-aminoalkyl-(N-substituted)thiocarbamoyl-phosphinates: inhibitors of aminopeptidase N (APN/CD13) with the new zinc-binding group” (Bioorg Med Chem Lett, 2008)
